According to PubChem BioAssay (NCI):
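Growth conditions: 96-well plates. Treatment: test compound, 48 hours, 5 concentrations. Analysis: linear interpolation between bracketing concentrations; unreached endpoints set to highest concentration. TGI is the concentration that stops growth completely.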

Assays:
Test in all cases: NCI anticancer screen, dose series, 48 h
[1] = test system: 786-0 renal
[2] = test system: A498 renal
[3] = test system: A549 NSCLC
[4] = test system: ACHN renal
[5] = test system: BT-549 breast
[6] = test system: CAKI-1 renal
[7] = test system: CCRF-CEM leukemia
[8] = test system: COLO 205 colon
[9] = test system: DU-145 prostate
[10] = test system: EKVX NSCLC
[11] = test system: HCT-116 colon
[12] = test system: HCT-15 colon
[13] = test system: HL-60(TB) leukemia
[14] = test system: HOP-62 NSCLC
[15] = test system: HOP-92 NSCLC
[16] = test system: HS 578T breast
[17] = test system: HT29 colon
[18] = test system: IGROV1 ovarian
[19] = test system: K-562 leukemia
[20] = test system: KM12 colon
[21] = test system: LOX IMVI melanoma
[22] = test system: M14 melanoma
[23] = test system: MALME-3M melanoma
[24] = test system: MCF7 breast
[25] = test system: MDA-MB-231 breast
[26] = test system: MDA-MB-435
[27] = test system: MDA-N
[28] = test system: MOLT-4 leukemia
[29] = test system: NCI-H226 lung
[30] = test system: NCI-H23 lung
[31] = test system: NCI-H460 lung
[32] = test system: NCI-H522 lung
[33] = test system: NCI/ADR-RES ovarian
[34] = test system: OVCAR-3 ovarian
[35] = test system: OVCAR-4 ovarian
[36] = test system: OVCAR-5 ovarian
[37] = test system: OVCAR-8 ovarian
[38] = test system: PC-3 prostate
[39] = test system: RPMI-8226 leukemia
[40] = test system: RXF 393 renal
[41] = test system: SF-268 CNS
[42] = test system: SF-295 CNS
[43] = test system: SF-539 CNS
[44] = test system: SK-MEL-2 melanoma
[45] = test system: SK-MEL-28 melanoma
[46] = test system: SK-MEL-5 melanoma
[47] = test system: SK-OV-3 ovarian
[48] = test system: SN12C renal
[49] = test system: SNB-19 CNS
[50] = test system: SR leukemia
[51] = test system: SW-620 colon
[52] = test system: T-47D breast
[53] = test system: TK-10 renal
[54] = test system: U251 CNS
[55] = test system: UACC-257 melanoma
[56] = test system: UACC-62 melanoma
[57] = test system: UO-31 renal
[58] = test system: SNB-75 CNS
[59] = test system: HCC-2998 colon

NC(=O)N/N=C1/CCC(O)CC1CC(=O)O (stereo not drawn)
TGI [1]: > 100 µM
TGI [2]: > 100 µM
TGI [3]: > 100 µM
TGI [4]: > 100 µM
TGI [5]: > 100 µM
TGI [6]: > 100 µM
TGI [7]: > 100 µM
TGI [8]: > 100 µM
TGI [9]: > 100 µM
TGI [10]: > 100 µM
TGI [11]: > 100 µM
TGI [12]: > 100 µM
TGI [13]: 31.9 µM
TGI [14]: > 100 µM
TGI [15]: > 100 µM
TGI [16]: > 100 µM
TGI [17]: > 100 µM
TGI [18]: > 100 µM
TGI [19]: > 100 µM
TGI [20]: > 100 µM
TGI [21]: > 100 µM
TGI [22]: > 100 µM
TGI [23]: > 100 µM
TGI [24]: > 100 µM
TGI [25]: > 100 µM
TGI [26]: > 100 µM
TGI [27]: > 100 µM
TGI [28]: > 100 µM
TGI [29]: > 100 µM
TGI [30]: > 100 µM
TGI [31]: > 100 µM
TGI [32]: > 100 µM
TGI [33]: > 100 µM
TGI [34]: > 100 µM
TGI [35]: > 100 µM
TGI [36]: > 100 µM
TGI [37]: > 100 µM
TGI [38]: > 100 µM
TGI [39]: > 100 µM
TGI [40]: > 100 µM
TGI [41]: > 100 µM
TGI [42]: > 100 µM
TGI [43]: > 100 µM
TGI [44]: > 100 µM
TGI [45]: > 100 µM
TGI [46]: > 100 µM
TGI [47]: > 100 µM
TGI [48]: > 100 µM
TGI [49]: > 100 µM
TGI [50]: > 100 µM
TGI [51]: > 100 µM
TGI [52]: > 100 µM
TGI [53]: > 100 µM
TGI [54]: > 100 µM
TGI [55]: > 100 µM
TGI [56]: > 100 µM
TGI [57]: > 100 µM

CCOC(=O)c1nc2ccc(C(F)(F)F)cc2nc1Oc1cc(OC)c(OC)c(OC)c1
TGI [1]: > 100 µM
TGI [2]: > 100 µM
TGI [3]: > 100 µM
TGI [4]: > 100 µM
TGI [5]: > 100 µM
TGI [8]: 63.7 µM
TGI [9]: > 100 µM
TGI [10]: > 100 µM
TGI [11]: > 100 µM
TGI [12]: > 100 µM
TGI [13]: > 100 µM
TGI [14]: > 100 µM
TGI [15]: > 100 µM
TGI [16]: 73.5 µM
TGI [17]: > 100 µM
TGI [18]: > 100 µM
TGI [19]: > 100 µM
TGI [20]: > 100 µM
TGI [21]: > 100 µM
TGI [22]: > 100 µM
TGI [23]: > 100 µM
TGI [24]: > 100 µM
TGI [25]: > 100 µM
TGI [26]: > 100 µM
TGI [27]: > 100 µM
TGI [28]: > 100 µM
TGI [29]: 81.9 µM
TGI [31]: > 100 µM
TGI [33]: > 100 µM
TGI [34]: > 100 µM
TGI [35]: 7.69 µM
TGI [36]: > 100 µM
TGI [37]: > 100 µM
TGI [38]: > 100 µM
TGI [39]: > 100 µM
TGI [40]: > 100 µM
TGI [41]: > 100 µM
TGI [42]: > 100 µM
TGI [43]: > 100 µM
TGI [44]: > 100 µM
TGI [45]: > 100 µM
TGI [46]: 96.4 µM
TGI [47]: > 100 µM
TGI [48]: > 100 µM
TGI [49]: > 100 µM
TGI [58]: 68.6 µM
TGI [51]: > 100 µM
TGI [52]: > 100 µM
TGI [53]: > 100 µM
TGI [54]: > 100 µM
TGI [55]: > 100 µM
TGI [56]: > 100 µM
TGI [57]: > 100 µM

CCCCOC(=O)C(NC(C(=O)OCCCC)c1cc(C(C)(C)C)c(O)c(C(C)(C)C)c1)c1cc(C(C)(C)C)c(O)c(C(C)(C)C)c1 (stereo not drawn)
TGI [1]: > 100 µM
TGI [2]: > 100 µM
TGI [3]: > 100 µM
TGI [4]: > 100 µM
TGI [5]: > 100 µM
TGI [6]: > 100 µM
TGI [7]: > 100 µM
TGI [8]: > 100 µM
TGI [9]: > 100 µM
TGI [10]: > 100 µM
TGI [11]: > 100 µM
TGI [12]: > 100 µM
TGI [13]: > 100 µM
TGI [14]: > 100 µM
TGI [15]: > 100 µM
TGI [16]: > 100 µM
TGI [17]: > 100 µM
TGI [18]: > 100 µM
TGI [19]: > 100 µM
TGI [20]: > 100 µM
TGI [21]: > 100 µM
TGI [22]: > 100 µM
TGI [23]: > 100 µM
TGI [24]: > 100 µM
TGI [25]: > 100 µM
TGI [26]: > 100 µM
TGI [27]: > 100 µM
TGI [28]: > 100 µM
TGI [29]: > 100 µM
TGI [30]: > 100 µM
TGI [32]: > 100 µM
TGI [33]: > 100 µM
TGI [34]: > 100 µM
TGI [35]: > 100 µM
TGI [36]: > 100 µM
TGI [37]: > 100 µM
TGI [38]: > 100 µM
TGI [39]: > 100 µM
TGI [41]: > 100 µM
TGI [42]: > 100 µM
TGI [43]: > 100 µM
TGI [44]: > 100 µM
TGI [45]: > 100 µM
TGI [46]: > 100 µM
TGI [47]: > 100 µM
TGI [48]: > 100 µM
TGI [49]: > 100 µM
TGI [58]: > 100 µM
TGI [51]: > 100 µM
TGI [52]: > 100 µM
TGI [53]: > 100 µM
TGI [54]: > 100 µM
TGI [55]: > 100 µM
TGI [56]: > 100 µM
TGI [57]: > 100 µM

CC1(C)CC(O)C(C)(C)[C@@H](O)C1 (stereo partly drawn)
TGI [1]: > 100 µM
TGI [3]: > 100 µM
TGI [4]: > 100 µM
TGI [5]: > 100 µM
TGI [6]: > 100 µM
TGI [7]: > 100 µM
TGI [8]: > 100 µM
TGI [9]: > 100 µM
TGI [10]: > 100 µM
TGI [59]: > 100 µM
TGI [11]: > 100 µM
TGI [12]: > 100 µM
TGI [13]: > 100 µM
TGI [14]: > 100 µM
TGI [16]: > 100 µM
TGI [17]: > 100 µM
TGI [18]: > 100 µM
TGI [19]: > 100 µM
TGI [20]: > 100 µM
TGI [21]: > 100 µM
TGI [22]: > 100 µM
TGI [23]: > 100 µM
TGI [24]: > 100 µM
TGI [25]: > 100 µM
TGI [27]: > 100 µM
TGI [28]: > 100 µM
TGI [29]: > 100 µM
TGI [30]: > 100 µM
TGI [31]: > 100 µM
TGI [32]: > 100 µM
TGI [33]: > 100 µM
TGI [35]: > 100 µM
TGI [36]: > 100 µM
TGI [37]: > 100 µM
TGI [38]: > 100 µM
TGI [40]: > 100 µM
TGI [41]: > 100 µM
TGI [42]: > 100 µM
TGI [43]: > 100 µM
TGI [44]: > 100 µM
TGI [45]: > 100 µM
TGI [46]: > 100 µM
TGI [47]: > 100 µM
TGI [48]: > 100 µM
TGI [49]: > 100 µM
TGI [58]: > 100 µM
TGI [51]: > 100 µM
TGI [52]: > 100 µM
TGI [53]: > 100 µM
TGI [54]: > 100 µM
TGI [55]: > 100 µM
TGI [56]: > 100 µM
TGI [57]: > 100 µM
